Measurements reported in US10259847B2, “Beta-hairpin peptidomimetics” (POLYPHOR AG, priority 2014, dated 2019).
Where a SMILES comes first, the peptide text is derived from it. Bridges are numbered along the chain shown (N, C = ends). [ ]: non-standard residue; d: D form. Tle = CC(C)(C)[C@H](N)C(=O)O; dDab = NCC[C@@H](N)C(=O)O; Dab = NCC[C@H](N)C(=O)O; dAze = O=C(O)[C@H]1CCN1; Dap = NC[C@H](N)C(=O)O

Tests used:
Format in all cases: cell-based
[1] = tested on: human red blood cells (hRBC); assay: Hemolysis of human red blood cells; conditions: red cells of human, 1 h, 100
Protocol: (§1) Stock solutions were kept at +4° C., light protected.
Percent hemolysis was calculated as follows: (OD540peptide/OD540H2O)×100%.

[2] = tested on: Klebsiella pneumoniae ATCC 13883; conditions: ATCC 13883
Protocol: as §1
(§2) The selective antimicrobial activities of the peptides were determined in 96-well plates (Greiner, polystyrene) by the standard NCCLS broth microdilution method (National Committee for Clinical Laboratory Standards 1993. Methods for dilution antimicrobial susceptibility tests for bacteria that grow aerobically, 3rd ed. Approved standard M7-A6; National Committee for Clinical laboratory standards, Wayne, Pa.) with slight modifications. Inocula of the microorganisms were diluted into Mueller-Hinton II (MH, cation adjusted) broth and compared with a 0.5 McFarland standard to give appr. 10^6 colony forming units (CFU)/mL. Aliquots (90 μl) of inoculate were added to 10 μl of MH broth+P-80 (Polysorbate 80, 0.002% final concentration) containing the peptide in serial two-fold dilutions. The following microorganisms were used to determine antibiotic selectivity of the peptides: Escherichia coli ATCC 25922, Klebsiella pneumoniae ATCC 13883 and Acinetobacter baumannii DSM 30008.

[3] = tested on: Escherichia coli ATCC 25922; conditions: ATCC 25922
Protocol: as §1, §2

[4] = tested on: Acinetobacter baumannii DSM 30008; conditions: DSM 30008
Protocol: as §1, §2

SMILES	Klebsiella pneumoniae ATCC 13883 MIC [2]	Escherichia coli ATCC 25922 MIC [3]	Acinetobacter baumannii DSM 30008 MIC [4]	Hemolysis at 100 μg/mL [1]
CC[C@H](C)[C@@H]1NC(=O)[C@H](Cc2ccc(O)cc2)NC(=O)[C@H]2CCCN2C(=O)[C@H](CO)NC(=O)[C@@H]2CSSC[C@H](NC1=O)C(=O)N[C@@H](Cc1ccc(O)cc1)C(=O)N[C@@H](CCN)C(=O)N[C@@H](CCCN)C(=O)N[C@H](CCN)C(=O)N[C@@H](CCN)C(=O)N[C@@H](Cc1c[nH]c3ccccc13)C(=O)N[C@@H](CCN)C(=O)N[C@@H](C(C)(C)C)C(=O)N2 [Example 11, cyclo(-Ile-Cys-Tyr-Dab-Orn-^DDab-Dab-Trp-Dab-tBuGly-Cys-Ser-^DPro-Tyr-)] (HELM PEPTIDE1{C.S.[dP].Y.I.C.Y.[Dab].[Orn].[NCC[C@@H](N[*:1])C(=O)[*:2]].[Dab].W.[Dab].[CC(C)(C)[C@H](N[*:1])C(=O)[*:2]]}$PEPTIDE1,PEPTIDE1,1:R3-6:R3|PEPTIDE1,PEPTIDE1,1:R1-14:R2$$$V2.0)	0.5 µg/mL	2 µg/mL	1 µg/mL	1%
CC(C)[C@@H]1NC(=O)[C@@H]2CCCN2C(=O)[C@H]2CCN2C(=O)[C@H]([C@@H](C)O)NC(=O)[C@@H]2CC(=O)NCC[C@H](NC1=O)C(=O)N[C@@H](Cc1ccc(O)cc1)C(=O)N[C@@H](CCN)C(=O)N[C@@H](CN)C(=O)N[C@H](CCN)C(=O)N[C@@H](CCN)C(=O)N[C@@H](Cc1c[nH]c3ccccc13)C(=O)N[C@@H](CCN)C(=O)N[C@@H](C(C)(C)C)C(=O)N2 [Example 12, cyclo(-Val-Dab-Tyr-Dab-Dap-^DDab-Dab-Trp-Dab-tBuGly-Asp-Thr-^DAzt-Pro-)] (cyclo(DT[dAze]PV[Dab]Y[Dab][Dap][dDab][Dab]W[Dab][Tle]); lactam 1-6)	0.25 µg/mL	0.5 µg/mL	1 µg/mL	4%
CC(C)(C)[C@@H]1NC(=O)[C@H](CCN)NC(=O)[C@H](Cc2c[nH]c3ccccc23)NC(=O)[C@H](CCN)NC(=O)[C@@H](CCN)NC(=O)[C@H](CCCN)NC(=O)[C@H](CCCNC(=N)N)NC(=O)[C@H](Cc2ccc(O)cc2)NC(=O)[C@@H]2CCNC(=O)C[C@H](NC1=O)C(=O)N[C@@H](CO)C(=O)N1CCC[C@@H]1C(=O)N1CCC[C@H]1C(=O)N[C@@H](Cc1ccccc1)C(=O)N2 [Example 13, cyclo(-Phe-Dab-Tyr-Arg-Orn-^DDab-Dab-Trp-Dab-tBuGly-Asp-Ser-^DPro-Pro-)] (HELM PEPTIDE1{F.[Dab].Y.R.[Orn].[NCC[C@@H](N[*:1])C(=O)[*:2]].[Dab].W.[Dab].[CC(C)(C)[C@H](N[*:1])C(=O)[*:2]].D.S.[dP].P}$PEPTIDE1,PEPTIDE1,2:R3-11:R3|PEPTIDE1,PEPTIDE1,1:R1-14:R2$$$V2.0)	0.5 µg/mL	0.25 µg/mL	1 µg/mL	1%
CC(C)(C)[C@@H]1NC(=O)[C@H](CCN)NC(=O)[C@H](Cc2c[nH]c3ccccc23)NC(=O)[C@H](CCN)NC(=O)[C@@H](CCN)NC(=O)[C@H](CCN)NC(=O)[C@H](CCN)NC(=O)[C@H](Cc2ccc(O)cc2)NC(=O)[C@@H]2CCNC(=O)C[C@H](NC1=O)C(=O)N[C@@H](CO)C(=O)N1CCC[C@@H]1C(=O)N1CCC[C@H]1C(=O)N[C@@H](Cc1c[nH]c3ccccc13)C(=O)N2 [Example 14, cyclo(-Trp-Dab-Tyr-Dab-Dab-^DDab-Dab-Trp-Dab-tBuGly-Asp-Ser-^DPro-Pro-)] (HELM PEPTIDE1{W.[Dab].Y.[Dab].[Dab].[NCC[C@@H](N[*:1])C(=O)[*:2]].[Dab].W.[Dab].[CC(C)(C)[C@H](N[*:1])C(=O)[*:2]].D.S.[dP].P}$PEPTIDE1,PEPTIDE1,2:R3-11:R3|PEPTIDE1,PEPTIDE1,1:R1-14:R2$$$V2.0)	0.25 µg/mL	0.25 µg/mL	0.5 µg/mL	2%
CC(C)(C)[C@@H]1NC(=O)[C@H](CCN)NC(=O)[C@H](Cc2c[nH]c3ccccc23)NC(=O)[C@H](CCN)NC(=O)[C@H](CCN)NC(=O)[C@H](CCN)NC(=O)[C@H](CCN)NC(=O)[C@H](Cc2ccc(O)cc2)NC(=O)[C@@H]2CCNC(=O)C[C@H](NC1=O)C(=O)N[C@@H](CO)C(=O)N1CC[C@@H]1C(=O)N1CCC[C@H]1C(=O)N[C@@H](Cc1c[nH]c3ccccc13)C(=O)N2 [Example 15, cyclo(-Trp-Dab-Tyr-Dab-Dab-Dab-Dab-Trp-Dab-tBuGly-Asp-Ser-^DAzt-Pro-)] (HELM PEPTIDE1{D.S.[O=C([C@H]1CCN1[*:1])[*:2]].P.W.[Dab].Y.[Dab].[Dab].[Dab].[Dab].W.[Dab].[CC(C)(C)[C@H](N[*:1])C(=O)[*:2]]}$PEPTIDE1,PEPTIDE1,1:R3-6:R3|PEPTIDE1,PEPTIDE1,1:R1-14:R2$$$V2.0)	0.25 µg/mL	0.25 µg/mL	0.5 µg/mL	1%

Second part, led by results:

Klebsiella pneumoniae ATCC 13883 MIC [2]	Escherichia coli ATCC 25922 MIC [3]	Acinetobacter baumannii DSM 30008 MIC [4]	SMILES	Hemolysis at 100 μg/mL [1]
0.5 µg/mL	0.5 µg/mL	1 µg/mL	CC(C)[C@@H]1NC(=O)[C@@H]2CCCN2C(=O)[C@H]2CCCN2C(=O)[C@H](CO)NC(=O)[C@@H]2CC(=O)NCC[C@H](NC1=O)C(=O)N[C@@H](Cc1ccc(O)cc1)C(=O)N[C@@H](CCN)C(=O)N[C@@H](CCN)C(=O)N[C@H](CCN)C(=O)N[C@@H](CCN)C(=O)N[C@@H](Cc1c[nH]c3ccccc13)C(=O)N[C@@H](CCN)C(=O)N[C@@H](c1ccccc1)C(=O)N2 [Example 16, cyclo(-Val-Dab-Tyr-Dab-Dab-^DDab-Dab-Trp-Dab-Phg-Asp-Ser-^DPro-Pro-)] (HELM PEPTIDE1{V.[Dab].Y.[Dab].[Dab].[NCC[C@@H](N[*:1])C(=O)[*:2]].[Dab].W.[Dab].[Phg].D.S.[dP].P}$PEPTIDE1,PEPTIDE1,2:R3-11:R3|PEPTIDE1,PEPTIDE1,1:R1-14:R2$$$V2.0)	1%
2 µg/mL	2 µg/mL	4 µg/mL	CC(C)[C@@H]1NC(=O)[C@@H]2CCCN2C(=O)[C@H]2CCCN2C(=O)[C@H](Cc2c[nH]cn2)NC(=O)[C@@H]2CC(=O)NCC[C@H](NC1=O)C(=O)N[C@@H](Cc1ccc(O)cc1)C(=O)N[C@@H](CCN)C(=O)N[C@@H]([C@@H](C)O)C(=O)N[C@@H](CCN)C(=O)N[C@@H](CCN)C(=O)N[C@@H](Cc1c[nH]c3ccccc13)C(=O)N[C@@H](CCN)C(=O)N[C@@H](C(C)(C)C)C(=O)N2 [Example 17, cyclo(-Val-Dab-Tyr-Dab-Thr-Dab-Dab-Trp-Dab-tBuGly-Asp-His-^DPro-Pro-)] (HELM PEPTIDE1{V.[Dab].Y.[Dab].T.[Dab].[Dab].W.[Dab].[CC(C)(C)[C@H](N[*:1])C(=O)[*:2]].D.H.[dP].P}$PEPTIDE1,PEPTIDE1,2:R3-11:R3|PEPTIDE1,PEPTIDE1,1:R1-14:R2$$$V2.0)	1%
0.5 µg/mL	2 µg/mL	3 µg/mL	CC(C)C[C@@H]1NC(=O)[C@@H]2CCCN2C(=O)[C@H]2CCCN2C(=O)[C@H](CO)NC(=O)[C@@H]2CNC(=O)CC[C@H](NC1=O)C(=O)N[C@@H](Cc1ccc(O)cc1)C(=O)N[C@@H](CCN)C(=O)N[C@@H](CCCN)C(=O)N[C@@H](CCN)C(=O)N[C@@H](CCN)C(=O)N[C@@H](Cc1c[nH]c3ccccc13)C(=O)N[C@@H](CCN)C(=O)N[C@@H](C(C)(C)C)C(=O)N2 [Example 18, cyclo(-Leu-Glu-Tyr-Dab-Orn-Dab-Dab-Trp-Dab-tBuGly-Dap-Ser-^DPro-Pro-)] (HELM PEPTIDE1{L.E.Y.[Dab].[Orn].[Dab].[Dab].W.[Dab].[CC(C)(C)[C@H](N[*:1])C(=O)[*:2]].[O=C([C@H](CN[*:3])N[*:1])[*:2]].S.[dP].P}$PEPTIDE1,PEPTIDE1,2:R3-11:R3|PEPTIDE1,PEPTIDE1,1:R1-14:R2$$$V2.0)	0%
8 µg/mL	3 µg/mL	3 µg/mL	CC(C)C[C@@H]1NC(=O)[C@@H]2CCCN2C(=O)[C@H]2CCCN2C(=O)[C@H](CO)NC(=O)[C@@H]2CCNC(=O)CC[C@H](NC1=O)C(=O)N[C@@H](Cc1ccc(O)cc1)C(=O)N[C@@H](CCN)C(=O)N[C@@H](CCCN)C(=O)N[C@H](CCN)C(=O)N[C@@H](CCN)C(=O)N[C@@H](Cc1c[nH]c3ccccc13)C(=O)N[C@@H](CCN)C(=O)N[C@@H](C(C)(C)C)C(=O)N2 [Example 19, cyclo(-Leu-Glu-Tyr-Dab-Orn-^DDab-Dab-Trp-Dab-tBuGly-Dab-Ser-^DPro-Pro-)] (HELM PEPTIDE1{L.E.Y.[Dab].[Orn].[NCC[C@@H](N[*:1])C(=O)[*:2]].[Dab].W.[Dab].[CC(C)(C)[C@H](N[*:1])C(=O)[*:2]].[Dab].S.[dP].P}$PEPTIDE1,PEPTIDE1,2:R3-11:R3|PEPTIDE1,PEPTIDE1,1:R1-14:R2$$$V2.0)	0%
